# From patent US9828385B2, “Spiro-oxazolones” (Hoffmann-La Roche Inc., priority 2014, dated 2017)
# Target: T1, human V1a receptor (Homo sapiens, UniProt P37288)
# T1 construct: expressed in transfected cells; host or cells: HEK293 cells, transiently transfected; cell membranes
# Assay: human V1a receptor binding studies (3H-Vasopressin, SPA beads)
# Details: membranes of HEK293 cells transiently transfected with human V1a receptor, Ki by Cheng-Prussoff from IC50, read-out: pKi hV1a (converted)
# Method: The human V1a receptor was cloned by RT-PCR from total human liver RNA. The coding sequence was subcloned in an expression vector after sequencing to confirm the identity of the amplified sequence. […] Cell membranes were prepared from HEK293 cells transiently transfected with the expression vector and grown in 20 liter fermenters with the following protocol.
# 50 g of cells are re-suspended in 30 ml freshly prepared ice cold Lysis buffer (50 mM HEPES, 1 mM EDTA, 10 mM MgCl2 adjusted to pH=7.4+complete cocktail of protease inhibitor (Roche Diagnostics)). Homogenized with Polytron for 1 min and sonicated on ice for 2×2 minutes at 80% intensity (Vibracell sonicator). The preparation is centrifuged 20 min at 500 g at 4° C., the pellet is discarded and the supernatant centrifuged 1 hour at 43′000 g at 4° C. (19′000 rpm). The pellet is re-suspended in 12.5 ml Lysis buffer+12.5 ml Sucrose 20% and homogenized using a Polytron for 1-2 min. The protein concentration is determined by the Bradford method and aliquots are stored at −80° C. until use. For binding studies 60 mg Yttrium silicate SPA beads (Amersham) are mixed with an aliquot of membrane in binding buffer (50 mM Tris, 120 mM NaCl, 5 mM KCl, 2 mM CaCl2, 10 mM MgCl2) for 15 minutes with mixing. 50 μl of bead/membrane mixture is then added to each well of a 96 well plate, followed by 50 μl of 4 nM 3H-Vasopressin (American Radiolabeled Chemicals). For total binding measurement 100 μl of binding buffer are added to the respective wells, for non-specific binding 100 μl of […] cold vasopressin and for compound testing 100 μl of a serial dilution of each compound in 2% DMSO. The plate is incubated 1 h at room temperature, centrifuged 1 min at 1000 g and counted on a Packard Top-Count. Non-specific binding counts are subtracted from each well and data is normalized to the maximum specific binding set at 100%. To calculate an IC 50 the curve is fitted using a non-linear regression model (XLfit) and the Ki is calculated using the Cheng-Prussoff equation.
# T1 sequence (P37288 whole entry): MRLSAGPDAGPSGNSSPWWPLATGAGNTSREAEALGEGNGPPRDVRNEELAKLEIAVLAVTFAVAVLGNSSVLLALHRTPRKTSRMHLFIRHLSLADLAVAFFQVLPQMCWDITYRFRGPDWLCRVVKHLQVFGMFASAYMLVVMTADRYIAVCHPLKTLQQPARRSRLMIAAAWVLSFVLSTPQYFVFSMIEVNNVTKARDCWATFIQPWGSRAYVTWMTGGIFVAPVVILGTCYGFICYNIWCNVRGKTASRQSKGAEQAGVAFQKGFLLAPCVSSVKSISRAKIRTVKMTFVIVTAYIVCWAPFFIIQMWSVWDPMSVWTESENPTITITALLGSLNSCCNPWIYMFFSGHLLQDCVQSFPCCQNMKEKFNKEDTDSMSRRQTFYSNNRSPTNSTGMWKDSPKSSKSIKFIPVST
row,Structure (SMILES),Ki
1,"O=C1N=C(N2CCC3(CC2)OCc2ccccc23)OC1C(O)c1ccccc1 (single isomer, unassigned) [Example 36, 5-(Hydroxy(phenyl)methyl)-2-(1′H,3H-spiro[2-benzofuran-1,4′-piperidin]-1′-yl)-1,3-oxazol-4(5H)-one diastereomer a, enantiomer A]",31.6 nM
2,"O=C1N=C(N2CCC3(CC2)OCc2ccccc23)OC1C(O)c1ccccc1 (single isomer, unassigned) [Example 37, 5-(Hydroxy(phenyl)methyl)-2-(1′H,3H-spiro[2-benzofuran-1,4′-piperidin]-1′-yl)-1,3-oxazol-4(5H)-one diastereomer a, enantiomer B]",126 nM
3,"O=C1N=C(N2CCC3(CC2)OCc2ccccc23)OC1C(O)c1ccccc1 (single isomer, unassigned) [Example 38, 5-(Hydroxy(phenyl)methyl)-2-(1′H,3H-spiro[2-benzofuran-1,4′-piperidin]-1′-yl)-1,3-oxazol-4(5H)-one diastereomer b, enantiomer A]",794 nM
4,"O=C1N=C(N2CCC3(CC2)OCc2ccccc23)OC1C(O)c1ccccc1 (single isomer, unassigned) [Example 39, 5-(Hydroxy(phenyl)methyl)-2-(1′H,3H-spiro[2-benzofuran-1,4′-piperidin]-1′-yl)-1,3-oxazol-4(5H)-one diastereomer b, enantiomer B]",126 nM
5,"O=C1N=C(N2CCC3(CC2)OCc2ccccc23)OC1C(F)c1ccc(Cl)cc1 (single isomer, unassigned) [Example 46, 5-((4-Chlorophenyl)fluoromethyl)-2-(1′H,3H-spiro[2-benzofuran-1,4′-piperidin]-1′-yl)-1,3-oxazol-4(5H)-one diastereomer a, enantiomer A]",31.6 nM
6,"O=C1N=C(N2CCC3(CC2)OCc2ccccc23)OC1C(F)c1ccc(Cl)cc1 (single isomer, unassigned) [Example 47, 5-((4-Chlorophenyl)fluoromethyl)-2-(1′H,3H-spiro[2-benzofuran-1,4′-piperidin]-1′-yl)-1,3-oxazol-4(5H)-one diastereomer a, enantiomer B]",20 nM
7,"O=C1N=C(N2CCC3(CC2)OCc2ccccc23)OC1C(F)c1ccc(Cl)cc1 (single isomer, unassigned) [Example 48, 5-((4-Chlorophenyl)fluoromethyl)-2-(1′H,3H-spiro[2-benzofuran-1,4′-piperidin]-1′-yl)-1,3-oxazol-4(5H)-one diastereomer b, enantiomer A]",39.8 nM
8,"O=C1N=C(N2CCC3(CC2)OCc2ccccc23)OC1C(F)c1ccc(Cl)cc1 (single isomer, unassigned) [Example 49, 5-((4-Chlorophenyl)fluoromethyl)-2-(1′H,3H-spiro[2-benzofuran-1,4′-piperidin]-1′-yl)-1,3-oxazol-4(5H)-one diastereomer b, enantiomer B]",2 nM
9,"O=C1OC2(CCN(C3=NC(=O)C(C(O)c4ccc(Cl)cc4)O3)CC2)c2ccccc21 (single isomer, unassigned) [Example 50, 1′-{-5-[(4-Chlorophenyl)(hydroxy)methyl]-4-oxo-4,5-dihydro-1,3-oxazol-2-yl}-3H-spiro[2-benzofuran-1,4′-piperidin]-3-one diastereomer a, enantiomer A]",20 nM
10,"O=C1OC2(CCN(C3=NC(=O)C(C(O)c4ccc(Cl)cc4)O3)CC2)c2ccccc21 (single isomer, unassigned) [Example 51, 1′-{-5-[(4-Chlorophenyl)(hydroxy)methyl]-4-oxo-4,5-dihydro-1,3-oxazol-2-yl}-3H-spiro[2-benzofuran-1,4′-piperidin]-3-one diastereomer a, enantiomer B]",158 nM
11,"O=C1OC2(CCN(C3=NC(=O)C(C(O)c4ccc(Cl)cc4)O3)CC2)c2ccccc21 (single isomer, unassigned) [Example 52, 1′-{-5-[(4-Chlorophenyl)(hydroxy)methyl]-4-oxo-4,5-dihydro-1,3-oxazol-2-yl}-3H-spiro[2-benzofuran-1,4′-piperidin]-3-one diastereomer b, enantiomer A]",631 nM
12,"O=C1OC2(CCN(C3=NC(=O)C(C(O)c4ccc(Cl)cc4)O3)CC2)c2ccccc21 (single isomer, unassigned) [Example 53, 1′-{-5-[(4-Chlorophenyl)(hydroxy)methyl]-4-oxo-4,5-dihydro-1,3-oxazol-2-yl}-3H-spiro[2-benzofuran-1,4′-piperidin]-3-one diastereomer b, enantiomer B]",158 nM
13,"CCCCC1OC(N2CCC3(CC2)OCc2ccccc23)=NC1=O (single isomer, unassigned; (+)) [Example 4, (+)-5-Butyl-2-(1′H,3H-spiro[2-benzofuran-1,4′-piperidin]-1′-yl)-1,3-oxazol-4(5H)-one]",5.01 nM
14,"CCCCC1(C)OC(N2CCC3(CC2)OCc2ccccc23)=NC1=O (single isomer, unassigned; (+)) [Example 67, (+)-5-Butyl-5-methyl-2-(1′H,3H-spiro[2-benzofuran-1,4′-piperidin]-1′-yl)-1,3-oxazol-4(5H)-one]",25.1 nM
15,"CC1(Cc2ccccc2)OC(N2CCC3(CC2)OCc2ccccc23)=NC1=O (single isomer, unassigned; (+)) [Example 70, (+)-5-Benzyl-5-methyl-2-(1′H,3H-spiro[2-benzofuran-1,4′-piperidin]-1′-yl)-1,3-oxazol-4(5H)-one]",7.94 nM
16,"CC1(CC2CCCC2)OC(N2CCC3(CC2)OCc2ccccc23)=NC1=O (single isomer, unassigned; (+)) [Example 77, (+)-5-(Cyclopentylmethyl)-5-methyl-2-(1′H,3H-spiro[2-benzofuran-1,4′-piperidin]-1′-yl)-1,3-oxazol-4(5H)-one]",2.51 nM
17,"CC1(Cc2ccc(Cl)nc2)OC(N2CCC3(CC2)OCc2ccccc23)=NC1=O (single isomer, unassigned; (+)) [Example 84, (+)-5-[(6-Chloropyridin-3-yl)methyl]-5-methyl-2-(1′H,3H-spiro[2-benzofuran-1,4′-piperidin]-1′-yl)-1,3-oxazol-4(5H)-one]",501 nM
18,"CC1(Cc2ccc(Cl)s2)OC(N2CCC3(CC2)OCc2ccccc23)=NC1=O (single isomer, unassigned; (+)) [Example 86, (+)-5-[(5-Chlorothiophen-2-yl)methyl]-5-methyl-2-(1′H,3H-spiro[2-benzofuran-1,4′-piperidin]-1′-yl)-1,3-oxazol-4(5H)-one]",1.26 nM
19,"CCOCC1(C)OC(N2CCC3(CC2)OCc2ccccc23)=NC1=O (single isomer, unassigned; (+)) [Example 96, (+)-5-(Ethoxymethyl)-5-methyl-2-(1′H,3H-spiro[2-benzofuran-1,4′-piperidin]-1′-yl)-1,3-oxazol-4(5H)-one]",251 nM
20,"CCCCC1OC(N2CCC3(CC2)OCc2ccccc23)=NC1=O (single isomer, unassigned; (-)) [Example 3, (−)-5-Butyl-2-(1′H,3H-spiro[2-benzofuran-1,4′-piperidin]-1′-yl)-1,3-oxazol-4(5H)-one]",50.1 nM
21,"CCCCC1(C)OC(N2CCC3(CC2)OCc2ccccc23)=NC1=O (single isomer, unassigned; (-)) [Example 68, (−)-5-Butyl-5-methyl-2-(1′H,3H-spiro[2-benzofuran-1,4′-piperidin]-1′-yl)-1,3-oxazol-4(5H)-one]",200 nM
22,"CC1(Cc2ccccc2)OC(N2CCC3(CC2)OCc2ccccc23)=NC1=O (single isomer, unassigned; (-)) [Example 71, (−)-5-Benzyl-5-methyl-2-(1′H,3H-spiro[2-benzofuran-1,4′-piperidin]-1′-yl)-1,3-oxazol-4(5H)-one]",79.4 nM
23,"CC1(CC2CCCC2)OC(N2CCC3(CC2)OCc2ccccc23)=NC1=O (single isomer, unassigned; (-)) [Example 78, (−)-5-(Cyclopentylmethyl)-5-methyl-2-(1′H,3H-spiro[2-benzofuran-1,4′-piperidin]-1′-yl)-1,3-oxazol-4(5H)-one]",100 nM
24,"CC1(Cc2ccc(Cl)nc2)OC(N2CCC3(CC2)OCc2ccccc23)=NC1=O (single isomer, unassigned; (-)) [Example 83, (−)-5-[(6-Chloropyridin-3-yl)methyl]-5-methyl-2-(1′H,3H-spiro[2-benzofuran-1,4′-piperidin]-1′-yl)-1,3-oxazol-4(5H)-one]",39.8 nM
25,"CC1(Cc2ccc(Cl)s2)OC(N2CCC3(CC2)OCc2ccccc23)=NC1=O (single isomer, unassigned; (-)) [Example 87, (−)-5-[(5-Chlorothiophen-2-yl)methyl]-5-methyl-2-(1′H,3H-spiro[2-benzofuran-1,4′-piperidin]-1′-yl)-1,3-oxazol-4(5H)-one]",200 nM
